# B1: dCREB2-a: Drosophila dCREB2 isoform, PKA-responsive transcriptional activator (SEQ ID NO.: 2), expressed from RSV-dCREB2-a (protein, listed as Drosophila sp.)
# chain: MDNSIVEENGNSSAASGSNDVVDVVAQQAAAAVGGGGGGGGGGGGGGNPQQQQQNPQSTTAGGPTGATNNAQGGGVSSVLTTTANCNIQYPIQTLAQHGLQVSIWGPGAWCQLSSVRCYGSQPEVATKDVQSVIQANPSGVIQTAAGTQQQQQALAAATAMQKVVYVAKPPNSTVIHTTPGNAVQVRNKIPPTFPCKIKPEPNTQHPEDSDESLSDDDSQHHRSELTRRPSYNKIFTEISGPDMSGASLPMSDGVLNSQLVGTGAGGNAANSSLMQLDPTYYLSNRMSYNTNNSGIAEDQTRKREIRLQKNREAARECRRKKKEYIKCLENRVAVLENQNKALIEELKSLKELYCQTKND
# Assays:
# [1] = target: T1, DNOS (Drosophila nitric oxide synthase) (Drosophila melanogaster, UniProt Q27571, DUP33-33/S105L/S1197R/S20A/S287C); experiment: DNOS enzyme activity, conversion of 3H-L-arginine to 3H-L-citrulline in extracts of dNOS-transfected 293 cells; assay type: biochemical
# T1 construct: contained dNOS cDNA (with an XbaI site engineered immediately upstream of the ATG codon) cloned into the XbaI and SmaI sites; made in house; host or cells: 293 human embryonic kidney cells, transient calcium-phosphate transfection; unpurified soluble protein extract
# Description: [In a parallel experiment, the specific activity of rat neuronal NOS expressed from the same vector in 293 cells was 3.0±0.02 pmol/mg/min, N=4]. DNOS activity was dependent on exogenous Ca^2+/calmodulin and on NADPH, two cofactors necessary for activity of constitutive mammalian NOSs (Iyengar, R., Proc. Natl. Acad. Sci. USA, 84: 6369-6373 (1987); Bredt, D. S., Proc. Natl. Acad. Sci. USA, 87: 682-685 (1990)). DNOS activity was reduced 90% by the Ca^2+ chelator EGTA (FIG. 17B, group C). Also, 500 μM N-(6-aminohexyl)-1-naphthalene-sulfonamide (W5), a calmodulin antagonist which inhibits activity of neuronal NOS (Bredt, D. S., Proc. Natl. Acad. Sci. USA, 87: 682-685 (1990)), diminished DNOS activity to 18% (0.0222±0.001 pmol/mg/min, N=2). In the absence of exogenous NADPH, DNOS (or nNOS) activity was reduced 20% (0.1061±0.011 pmol/mg/min, N=4 for DNOS; 2.7935±0.033 pmol/mg/min, N=2 for NNOS). DNOS activity also was blocked by inhibitors of mammalian NOSs (Rees, D. D., Br. J. Pharmacol., 101: 746-752 (1990)).
# The expression construct for activity assays contained dNOS cDNA (with an XbaI site engineered immediately upstream of the ATG codon) cloned into the XbaI and SmaI sites of the pCGN expression vector (M. Tanaka and W. Herr, Cell, 60: 375 (1990)). 293 human kidney cells were transfected with 15 μg of the dNOS construct, or vector DNA, and precipitated with calcium phosphate as described in (M. J. Imperiale, L. T. Feldman and J. R. Nevins, Cell, 35: 127 (1983)). Cells were collected 2 days later and protein extracts were prepared as described in (J. Sambrook, E. F. Fritsch, T. Maniatis, Molecular Cloning: A Laboratory Manual (Cold Spring Harbor Laboratory, Cold Spring Harbor, N.Y., 1989)).
# The enzymatic assay was done essentially as described previously (D. Bredt and S. Snyder, Proc. Natl. Acad. Sci. USA, 87: 682 (1990)). A […] containing 25 μl (50-100 μg) of soluble protein extract, 50 mM Hepes pH 7.4, […], 3 μM FMN, 10 μM tetrahydrobiopterin (ICN), 1 mM DTT, 0.8 mM CaCl2, 1 mM NADPH, 10 μg/ml calmodulin, 2 μl of [^3H]L-arginine (35.7 Ci/mmol, NEN) and 50 mM L-valine in was incubated for 60 minutes at 37° C. The reaction was stopped with 0.5 ml 20 mM Hepes pH 5.5, 2 mM EDTA, 2 mM EGTA, loaded on 0.5 ml Dowex AG 50WX-8 (Na^+ form) column and eluted with 3×0.5 ml of the stop buffer. Radioactivity present in the eluent was quantified in a scintillation counter.
# Enzymatic activity was detected only in cells transfected with dNOS cDNA construct (groups B-D) and is presented as specific activity (pmol of citrulline/mg/min.). The DNOS activity also was measured in the presence of 1 mM EGTA without exogenous Ca^2+ or calmodulin (group C), or in the presence of […] (group D). N=4 reactions per group.
# wild-type (Can-S) flies = experiment: Pavlovian olfactory learning: memory retention after massed or spaced training in flies fed cycloheximide; assay type: in vivo, Drosophila; conditions: for one-day memory after massed training: vs control flies; for one-day memory retention after spaced training: vs glucose-fed flies
# Experimental: For experiments on one day retention after massed or spaced training, flies were fed 35 mM CXM and (w/v) 5% glucose dissolved in 3% ethanol. Groups of 100 flies were placed in feeding tubes (Falcon 2017) containing one 1.0×2.5 cm Whatmann 3MM filter paper strips that was soaked with a total of 126 μl of solution.
# The feeding period was limited to 12-14 hrs prior to training, or to the 24-hr retention interval after training. Flies which were fed prior to training were transferred directly to the training apparatus after feeding, subjected to massed or spaced training, then transferred to test tubes containing filter paper strips soaked with 5% glucose during the 24-hr interval. Flies which were fed after training were trained, then transferred immediately to test tubes containing filter paper strips soaked with 5% glucose solution which was laced with 35 mM CXM. Flies remained in the test tubes for the duration of the 24-hr retention interval.
# Flies were trained with an automated version of the learning procedure of Tully, T. and W. G. Quinn, J. Comp. Physiol., 157: 263-277 (1985). In brief, flies were trapped in a training chamber, the inside of which was covered with an electrifiable copper grid. Groups of about 100 flies were exposed sequentially to two odors [either octanol (OCT) or methylcyclohexanol (MCH)], which were carried through the training chamber in a current of air, for 60 seconds with 45 seconds rest intervals after each odor presenation. During exposure to the first odor, flies also were subjected to twelve 1.5-second pulses of 60 V DC with a 5-second interpulse interval. After training, flies were transferred to food vials for a particular retention interval. Conditioned odor-avoidance responses then were tested by transferring flies to the choice point of a T-maze, where they were exposed simultaneously to OCT and MCH carried in the distal ends of the T-maze arms and out the choice point on converging currents of air. Flies were allowed to distribute themselves in the T-maze arms for two minutes, after which they were trapped in their respective arms, anesthetized and counted. The “percent correct” then was calculated as the number of flies avoiding the shock-paired odor (they were in the opposite T-maze arm) divided by the total number of flies in both arms. (The number of flies left at the choice point, which usually was less than 5%, were not included in this calculation). Finally, a performance index (PI) was calculated by averaging the percent corrects of two reciprocal groups of flies—one where OCT and shock were paired, the other where MCH and shock were paired—and then by normalizing the average so that a PI=0 represented a 50:50 distribution in the T-maze and a PI=100 represented 100% avoidance of the shock-paired odor. For these studies, three different training protocols were used: 1. One-cycle training consisted of the training session just described. 2. Massed training consisted of 10 of these training cycles delivered one right after the other. 3. Spaced training consisted of 10 training cycles with a 15-min rest interval between each. One-cycle training was used to assay learning, while massed and spaced was used to assay consolidated memories.
# A. One-day memory in wild-type flies fed CXM before or immediately after massed or spaced training (FIG. 8): PIs from these four drug treatments (−CXM before, −CXM after, +CXM before and +CXM after) and two training procedures (massed and spaced) were subjected to a TWO-WAY ANOVA with DRUG (F(3,56)=8.93; P<0.001) and TRAINing (F(1,56)=18.10, P<0.001) as main effects and DRUG×TRAIN (F(3,56)=4.68, P=0.006) as the interaction term. The six planned comparisons were judged significant if P≦0.01.
# Different groups of wild-type (Can-S) flies were fed 5% glucose solution alone (hatched bars) or laced with 35 mM CXM (striped bars) either for 12-14 hr overnight before massed or spaced training or for the 24-hr retention interval immediately after training. […]
# [2] = test system: PKA-responsive transcription (CRE-directed reporter) in F9 cells; experiment: PKA-responsive transcription from the CRE-containing D(-71) CAT reporter in transiently transfected F9 cells; assay type: cell-based; conditions: cotransfection of dCREB2-a and PKA; CAT/βgal ratios standardized to PKA-transfected dishes
# Experimental: Undifferentiated F9 cells were maintained and transfected using the calcium phosphate method as described in Darrow, A. L. et al., “Maintenance and Use of F9 Teratocarcinoma Cells”, In Meth. Enzymol., v. 190 (1990), except that chloroquine was added to […] immediately before transfection and precipitates were washed off ten hours after transfection, at which time the dishes received fresh chloroquine-free medium. Amounts of DNA in transfections were made equivalent by adding RSV-0 where required. Cells were harvested 30 hours after transfection. Extracts were made by three cycles of freeze/thawing, with brief vortexing between cycles. Particulate matter was cleared from extracts by ten minutes of centrifugation in the cold. β-galactosidase assays were performed as described in Miller, J. H., Experiments in Molecular Genetics, Cold Spring Harbor Laboratory, Cold Spring Harbor, N.Y., 1972. CAT assays were performed as described in Sheen, J. Y. and B. Seed, Gene, 67: 271-277 (1988) using aliquots of extract heat-treated at 65° C. for ten minutes and centrifuged for ten minutes to remove debris. Results reported are from three experiments run on different days with at least three dishes per condition within each experiment. Error bars represent standard error of the mean, with error propagation taken into account (Grossman, M. and H. W. Norton, J. Hered., 71: 295-297 (1980)).
# F9 cells were transiently transfected with 10 μg of D(−71) CAT plasmid as a CRE-directed reporter. 5 μg of RSV-βgal reporter was included in each dish as a normalization control for transfection efficiency. Different groups received 8 μg of dCREB2-a expression vector and 4 μg of PKA expression vector, separately or in combination. Results are expressed as CAT/Pgal enzyme activity ratios, standardized to values obtained with PKA-transfected dishes. […]
# Two different dCREB2 isoforms, dCREB2-a and dCREB2-b, have opposite roles in PKA-responsive transcription. […] CREB-dependent changes in gene expression were measured using a cotransfected construct that has a CRE-containing promoter fused to a reporter gene.
# [3] = 35 mM CXM fed 12-14 hr before training
# [4] = 35 mM CXM fed for the 24-hr retention interval after training
# [5] = flies fed CXM immediately before or after training
# T1 sequence (Q27571 other isoform, or with tags, fused parts or gaps S20A/DUP33-33/S105L/S287C/S1197R): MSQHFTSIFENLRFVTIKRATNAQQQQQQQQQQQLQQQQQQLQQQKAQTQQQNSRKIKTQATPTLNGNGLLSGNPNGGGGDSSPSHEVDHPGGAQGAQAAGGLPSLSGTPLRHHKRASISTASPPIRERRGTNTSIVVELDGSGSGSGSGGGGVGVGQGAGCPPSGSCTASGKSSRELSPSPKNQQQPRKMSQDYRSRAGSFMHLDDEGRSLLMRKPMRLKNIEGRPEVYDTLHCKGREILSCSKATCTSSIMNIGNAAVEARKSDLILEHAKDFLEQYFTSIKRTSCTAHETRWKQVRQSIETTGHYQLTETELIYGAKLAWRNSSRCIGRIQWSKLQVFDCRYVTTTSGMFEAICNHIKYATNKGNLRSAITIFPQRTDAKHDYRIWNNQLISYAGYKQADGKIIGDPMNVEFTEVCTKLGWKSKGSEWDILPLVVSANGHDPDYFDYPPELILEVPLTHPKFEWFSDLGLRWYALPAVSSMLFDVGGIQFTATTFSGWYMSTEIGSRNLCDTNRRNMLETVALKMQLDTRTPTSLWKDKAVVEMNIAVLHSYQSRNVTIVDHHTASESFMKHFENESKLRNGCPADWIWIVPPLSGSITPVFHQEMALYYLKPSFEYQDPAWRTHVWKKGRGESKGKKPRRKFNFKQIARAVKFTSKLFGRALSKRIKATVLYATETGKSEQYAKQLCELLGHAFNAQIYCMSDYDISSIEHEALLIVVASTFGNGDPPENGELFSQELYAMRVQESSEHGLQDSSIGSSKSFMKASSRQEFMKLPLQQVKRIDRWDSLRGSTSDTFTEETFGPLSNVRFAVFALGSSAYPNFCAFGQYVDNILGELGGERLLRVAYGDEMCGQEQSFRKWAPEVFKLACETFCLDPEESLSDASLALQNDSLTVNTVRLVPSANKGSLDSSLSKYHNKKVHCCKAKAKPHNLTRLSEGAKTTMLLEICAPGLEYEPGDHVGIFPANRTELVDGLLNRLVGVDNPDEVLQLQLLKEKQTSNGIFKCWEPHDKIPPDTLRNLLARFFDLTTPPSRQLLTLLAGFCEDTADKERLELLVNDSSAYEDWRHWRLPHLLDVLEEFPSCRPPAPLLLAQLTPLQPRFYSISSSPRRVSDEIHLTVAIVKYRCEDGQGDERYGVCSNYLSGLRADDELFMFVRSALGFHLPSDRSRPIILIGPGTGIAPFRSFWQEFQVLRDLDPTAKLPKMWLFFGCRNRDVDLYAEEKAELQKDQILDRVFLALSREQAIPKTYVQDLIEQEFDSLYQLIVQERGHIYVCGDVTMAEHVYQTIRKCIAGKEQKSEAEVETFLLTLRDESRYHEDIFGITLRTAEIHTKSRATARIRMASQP
molecule,measurement,setting,value
CC(=O)O.CNC(=N)NCCC[C@H](N)C(=O)O [N^G-monomethyl-L-arginine acetate],block of DNOS activity,[1]; 100 μM N^G-monomethyl-L-arginine acetate,complete block
same,DNOS specific activity,"[1]; 100 μM N^G-monomethyl-L-arginine acetate, N=2",0.0001 ± 0.0002 pmol/mg/min
"COC(=O)[C@@H](N)CCCNC(=N)N[N+](=O)[O-] [L-NAME, N^G-nitro-L-arginine methyl ester]",DNOS activity reduced,"[1]; 100 mM L-NAME with exogenous Ca2+/calmodulin (FIG. 17B, group D)",84%
"NCCCCCCNS(=O)(=O)c1cccc2ccccc12 [W5, N-(6-aminohexyl)-1-naphthalene-sulfonamide]",DNOS specific activity,"[1]; 500 μM W5, N=2",0.0222 ± 0.001 pmol/mg/min
same,remaining activity at 500 µM,"[1]; 500 μM W5, read-out: DNOS activity diminished to (remaining activity)",18%
O=C(O)CN(CCOCCOCCN(CC(=O)O)CC(=O)O)CC(=O)O [EGTA],DNOS activity reduced,"[1]; 1 mM EGTA without exogenous Ca2+ or calmodulin (FIG. 17B, group C)",90%
"C[C@@H]1C[C@@H]([C@H](O)CC2CC(=O)NC(=O)C2)C(=O)[C@@H](C)C1 [CXM, cycloheximide]",one-day memory after massed training,wild-type (Can-S) flies; [3],no difference was detected
same,one-day memory retention after spaced training,wild-type (Can-S) flies; [3],significantly lower than normal
same,one-day memory after massed training,wild-type (Can-S) flies; [4],no difference was detected
same,one-day memory retention after spaced training,wild-type (Can-S) flies; [4],significantly lower than normal
same,anesthesia-resistant memory (ARM),wild-type (Can-S) flies; [5],not affected
same,long-term memory (LTM),wild-type (Can-S) flies; [5],completely blocked
B1,activation of CRE reporter relative to PKA alone,[2],5.4 fold
